From patent US10076519B2 (CYTOKINETICS, INC., priority 2010, dated 2018)

Tested on: rabbit skeletal myofibrils (fast skeletal myofibrils)
Assay: Activation of fast skeletal myofibrils (PUMA assay, PK/LDH-coupled ATPase at pCa25)
Type: biochemical
Settings: AC1.4 determined according to the procedure of Example 39; reported as class symbols
Method in brief: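 Detergent-washed rabbit psoas myofibrils (~90% fast fibres, calcium-regulated) assayed at calcium giving 25% of maximal ATPase rate (pCa25). ADP turnover coupled via pyruvate kinase/lactate dehydrogenase to NADH oxidation, read at 340 nm. Buffer 12 mM PIPES, 2 mM MgCl2, 1 mM DTT, pH 6.8; AC1.4 values derived.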

Row | Mean AC1.4 | Structure (SMILES)
1 | C (C=10-20 uM) | CC(C)(CNc1ccc(-c2noc(C(N)=O)n2)nn1)c1ccc(F)cc1 [3-(6-{[2-(4-fluorophenyl)-2-methylpropyl]amino}pyridazin-3-yl)-1,2,4-oxadiazole-5-carboxamide]
2 | A (A=<1 uM) | CC(C)(CNc1ccc(-c2cccc(C(N)=O)c2)nn1)c1ccc(F)cc1 [3-(6-{[2-(4-fluorophenyl)-2-methylpropyl]amino}pyridazin-3-yl)benzamide]
3 | B (B=1-10 uM) | CC(C)(CNc1ccc(-c2cccc(C#N)c2)nn1)c1ccc(F)cc1 [3-(6-{[2-(4-fluorophenyl)-2-methylpropyl]amino}pyridazin-3-yl)benzenecarbonitrile]
4 | B (B=1-10 uM) | CC(C)(CNc1ccc(-c2cccc(C(=O)N3CCOCC3)c2)nn1)c1ccc(F)cc1 [3-(6-{[2-(4-fluorophenyl)-2-methylpropyl]amino}pyridazin-3-yl)phenyl morpholin-4-yl ketone]
5 | D (D=>20 uM) | CC(C)(CNc1ccc(-c2cccc(C(=O)c3ccccc3)c2)nn1)c1ccc(F)cc1 [3-(6-{[2-(4-fluorophenyl)-2-methylpropyl]amino}pyridazin-3-yl)phenyl phenyl ketone]
6 | B (B=1-10 uM) | CC(C)(CNc1ccc(-c2cccc(C(=O)N3CCNCC3)c2)nn1)c1ccc(F)cc1 [3-(6-{[2-(4-fluorophenyl)-2-methylpropyl]amino}pyridazin-3-yl)phenyl piperazinyl ketone]
7 | B (B=1-10 uM) | CC(C)(CNc1ccc(-c2cccc(C(=O)N3CCCCC3)c2)nn1)c1ccc(F)cc1 [3-(6-{[2-(4-fluorophenyl)-2-methylpropyl]amino}pyridazin-3-yl)phenyl piperidyl ketone]
8 | B (B=1-10 uM) | CC(C)(CNc1ccc(-c2cccnc2O)nn1)c1ccc(F)cc1 [3-(6-{[2-(4-fluorophenyl)-2-methylpropyl]amino}pyridazin-3-yl)pyridin-2-ol]
9 | C (C=10-20 uM) | CC(C)(CNc1ccc(-c2cccc(C(N)=O)c2)nn1)c1ccc(F)cn1 [3-(6-{[2-(5-fluoro(2-pyridyl))-2-methylpropyl]amino}pyridazin-3-yl)benzamide]
10 | D (D=>20 uM) | NC(=O)c1cccc(-c2ccc(NCC3(C(N)=O)CCC3)nn2)c1 [3-(6-{[(carbamoylcyclo-butyl)methyl]amino}pyridazin-3-yl)benzamide]
11 | D (D=>20 uM) | CC1(C)CN(c2ccc(-c3cccc(C(N)=O)c3)nn2)c2ccccc21 [3-[6-(3,3-dimethylindolinyl)pyridazin-3-yl]benzamide]
12 | D (D=>20 uM) | NC(=O)c1cccc(-c2ccc(NC3Cc4ccccc4C3)nn2)c1 [3-[6-(indan-2-ylamino)pyridazin-3-yl]benzamide]
13 | D (D=>20 uM) | CC(=O)N1CC(CNc2ccc(-c3cccc(C(N)=O)c3)nn2)(c2ncccc2F)C1 [3-[6-({[1-acetyl-3-(3-fluoro(2-pyridyl))azetidin-3-yl]methyl}amino)pyridazin-3-yl]benzamide]
14 | D (D=>20 uM) | CS(=O)(=O)N1CC(CNc2ccc(-c3cccc(C(N)=O)c3)nn2)(c2ncccc2F)C1 [3-[6-({[3-(3-fluoro(2-pyridyl))-1-(methylsulfonyl)azetidin-3-yl]methyl}amino)pyridazin-3-yl]benzamide]
15 | D (D=>20 uM) | NC(=O)c1cccc(-c2ccc(NCC3(c4ncccc4F)CNC3)nn2)c1 [3-[6-({[3-(3-fluoro-2-pyridyl)azetidin-3-yl]methyl}amino)pyridazin-3-yl]benzamide]
16 | D (D=>20 uM) | NC(=O)c1cccc(-c2ccc(NCC3(c4ccc(F)cc4)COC3)nn2)c1 [3-[6-({[3-(4-fluorophenyl)oxetan-3-yl]methyl}amino)pyridazin-3-yl]benzamide]
17 | A (A=<1 uM) | NC(=O)c1cccc(-c2ccc(NCC3(c4ccccc4Cl)CC3)nn2)c1 [3-[6-({[(2-chlorophenyl)cyclopropyl]meth-yl}amino)pyridazin-3-yl]benzamide]

Same assay, conditions: median AC1.4 class, procedure of Example 39

Row | Mean AC1.4 | Structure (SMILES)
18 | B (B=1-10 uM) | N#Cc1cccc(-c2ccc(NCC3(c4ccccn4)CCC3)nn2)c1 [3-(6-{[(2-pyridylcyclobutyl)methyl]ami-no}pyridazin-3-yl)benzenecarbonitrile]
19 | D (D=>20 uM) | CN(CC1(c2ccccn2)CCC1)c1ccc(-c2cccc(C(N)=O)c2)nn1 [3-(6-{methyl[(2-pyridylcyclobutyl)methyl]ami-no}pyridazin-3-yl)benzamide]
20 | D (D=>20 uM) | NC(=O)c1cccc(-c2ccc(NC(=O)c3ccccc3)nn2)c1 [3-[6-(phenylcarbonylamino)pyridazin-3-yl]benzamide]
21 | A (A=<1 uM) | CC(C)(Nc1ccc(-c2cc(C(N)=O)ccc2F)nn1)c1cccc(OC(F)F)n1 [3-[6-({1-[6-(difluoromethoxy)(2-pyridyl)]-isopropyl}amino)pyridazin-3-yl]-4-fluorobenzamide]
22 | B (B=1-10 uM) | CC(C)(Nc1ccc(-c2cccc(C(N)=O)c2)nn1)c1cccc(OC(F)F)n1 [3-[6-({1-[6-(difluoromethoxy)(2-pyridyl)]-isopropyl}amino)pyridazin-3-yl]benzamide]
23 | B (B=1-10 uM) | NC(=O)c1ccc(O)c(-c2ccc(NC[C@]3(c4ncccc4F)C[C@H](F)C3)nn2)c1 [3-[6-({[3-fluoro-1-(3-fluoro(2-pyridyl))cyclobutyl]methyl}ami-no)pyridazin-3-yl]-4-hydroxybenzamide]
24 | A (A=<1 uM) | NC(=O)c1cccc(-c2ccc(NC[C@]3(c4ncccc4F)C[C@H](F)C3)nn2)c1 [3-[6-({[3-fluoro-1-(3-fluoro(2-pyridyl))cyclobutyl]methyl}ami-no)pyridazin-3-yl]benzamide]
25 | B (B=1-10 uM) | N#Cc1cccc(-c2ccc(NC[C@]3(c4ncccc4F)C[C@H](F)C3)nn2)c1 [3-[6-({[3-fluoro-1-(3-fluoro(2-pyridyl))cyclobutyl]methyl}ami-no)pyridazin-3-yl]benzenecarbonitrile]
26 | B (B=1-10 uM) | NS(=O)(=O)c1cccc(-c2ccc(NC[C@]3(c4ncccc4F)C[C@H](F)C3)nn2)c1 [3-[6-({[3-fluoro-1-(3-fluoro(2-pyridyl))cyclobutyl]methyl}ami-no)pyridazin-3-yl]benzenesulfonamide]
27 | A (A=<1 uM) | O=C(O)c1cccc(-c2ccc(NC[C@]3(c4ncccc4F)C[C@H](F)C3)nn2)c1 [3-[6-({[3-fluoro-1-(3-fluoro(2-pyridyl))cyclobutyl]methyl}ami-no)pyridazin-3-yl]benzoic acid]

Same assay, conditions: median AC1.4 reported as class; procedure of Example 39

Row | Mean AC1.4 | Structure (SMILES)
28 | A (A=<1 uM) | NC(=O)c1cccc(-c2ccc(NC[C@]3(c4ncccc4F)C[C@H](F)C3)nn2)c1O [3-[6-({[3-fluoro-1-(3-fluoro(2-pyridyl))cyclobutyl]methyl}ami-no)pyridazin-3-yl]-2-hydroxybenzamide]
29 | B (B=1-10 uM) | N#Cc1cccc(-c2ccc(NC[C@]3(c4ncccc4F)C[C@H](F)C3)nn2)c1O [3-[6-({[3-fluoro-1-(3-fluoro(2-pyridyl))cyclobutyl]methyl}ami-no)pyridazin-3-yl]-2-hydroxybenzenecarbonitrile]
30 | C (C=10-20 uM) | O=C(O)c1cccc(-c2ccc(NC[C@]3(c4ncccc4F)C[C@H](F)C3)nn2)c1O [3-[6-({[3-fluoro-1-(3-fluoro(2-pyridyl))cyclobutyl]methyl}ami-no)pyridazin-3-yl]-2-hydroxybenzoic acid]
31 | D (D=>20 uM) | COc1c(C(N)=O)cccc1-c1ccc(NC[C@]2(c3ncccc3F)C[C@H](F)C2)nn1 [3-[6-({[3-fluoro-1-(3-fluoro(2-pyridyl))cyclobutyl]methyl}ami-no)pyridazin-3-yl]-2-methoxybenzamide]
32 | C (C=10-20 uM) | COc1c(C#N)cccc1-c1ccc(NC[C@]2(c3ncccc3F)C[C@H](F)C2)nn1 [3-[6-({[3-fluoro-1-(3-fluoro(2-pyridyl))cyclobutyl]methyl}ami-no)pyridazin-3-yl]-2-methoxybenzenecarbonitrile]
33 | B (B=1-10 uM) | NC(=O)c1cc(-c2ccc(NC[C@]3(c4ncccc4F)C[C@H](F)C3)nn2)cc(C(F)(F)F)c1 [3-[6-({[3-fluoro-1-(3-fluoro(2-pyridyl))cyclobutyl]methyl}ami-no)pyridazin-3-yl]-5-(trifluoromethyl)benzamide]
34 | A (A=<1 uM) | NC(=O)c1cc(O)cc(-c2ccc(NC[C@]3(c4ncccc4F)C[C@H](F)C3)nn2)c1 [3-[6-({[3-fluoro-1-(3-fluoro(2-pyridyl))cyclobutyl]methyl}ami-no)pyridazin-3-yl]-5-hydroxybenzamide]
35 | B (B=1-10 uM) | Cc1cc(C(N)=O)cc(-c2ccc(NC[C@]3(c4ncccc4F)C[C@H](F)C3)nn2)c1 [3-[6-({[3-fluoro-1-(3-fluoro(2-pyridyl))cyclobutyl]methyl}ami-no)pyridazin-3-yl]-5-methylbenzamide]
36 | C (C=10-20 uM) | Cc1cc(NCC2(c3ncccc3F)CCC2)nnc1-c1cccc(C(N)=O)c1 [3-[6-({[(3-fluoro(2-pyridyl))cyclobutyl]methyl}ami-no)-4-methylpyridazin-3-yl]benzamide]
37 | C (C=10-20 uM) | Cc1cc(NCC2(c3ncccc3F)CCC2)nnc1-c1cccc(C#N)c1 [3-[6-({[(3-fluoro(2-pyridyl))cyclobutyl]methyl}ami-no)-4-methylpyridazin-3-yl]benzenecarbonitrile]
38 | B (B=1-10 uM) | Cc1cc(C(N)=O)c(O)c(-c2ccc(NCC3(c4ncccc4F)CCC3)nn2)c1 [3-[6-({[(3-fluoro(2-pyridyl))cyclobutyl]methyl}ami-no)pyridazin-3-yl]-2-hydroxy-5-methylbenzamide]
39 | B (B=1-10 uM) | Cc1cc(C#N)c(O)c(-c2ccc(NCC3(c4ncccc4F)CCC3)nn2)c1 [3-[6-({[(3-fluoro(2-pyridyl))cyclobutyl]methyl}ami-no)pyridazin-3-yl]-2-hydroxy-5-methylbenzenecarbonitrile]
40 | A (A=<1 uM) | NC(=O)c1cccc(-c2ccc(NCC3(c4ncccc4F)CCC3)nn2)c1O [3-[6-({[(3-fluoro(2-pyridyl))cyclobutyl]methyl}ami-no)pyridazin-3-yl]-2-hydroxybenzamide]
